Data set [1] deals with human prostate cancer PC-3. The settings on record: PC-3 xenograft, nude mice, 33.6 mg/kg, D0 IV, single dose; for Tumor inhibitory percent (%) D20: P(D20)=0.000 vs control; for Tumor volume (mm^3) (D0): D0 (baseline at grouping).
Excerpt: Test of the inhibitory activity of the water soluble docetaxel derivatives on subcutaneously xenografted tumor of human prostate cancer PC-3 in nude mice: evaluating and comparing the inhibitory activity of the water soluble docetaxel derivatives and docetaxel on subcutaneously xenografted tumor of human prostate cancer PC-3 in nude mice.
Human prostate cancer PC-3 cells were subcutaneously inoculated into nude mice. After the tumor volume reached 100-150 mm^3, the animals were randomly divided into several groups, and administered with the water soluble docetaxel derivatives of the present invention and docetaxel, respectively once on the same day (D0). The tumor volume was measured 2-3 times per week, the animals were weighed and the data were recorded until day 20 (D20) after grouping.
(§1) The tumor volume (V) was calculated according to the equation: V=½×a×b^2, wherein a and b represent the length and the width, respectively.
(§2) T/C (%)=(T−T0)/(C−C0)×100, wherein T and C represent the tumor volume at the end of the experiment; and T0 and C0 represent the tumor volume at the beginning of the experiment.
A short description of data set [2]: In vitro dissociation of the water soluble taxane derivatives in blood plasma of rat. Conditions: 37° C. The data set is classed as in vitro ADME, SD rats. As for the experimental part: The obtained water soluble taxane derivatives were formulated as 0.2 mg/ml aqueous solutions. […] After 2 min, 5 min and 10 min of incubation, 0.2 ml of solutions were respectively taken from each of the samples, and added to acetonitrile (0.4 ml) cooled to −20° C. for precipitation of protein.

Data set [3] in a line: In vitro dissociation of the water soluble taxane derivatives in blood plasma of rabbit. The settings on record: 37° C. The data set is classed as in vitro ADME, New Zealand white rabbits. How it is done: The obtained water soluble taxane derivatives were formulated as 0.2 mg/ml aqueous solutions. […] After 5 min, 20 min and 60 min of incubation, 0.2 ml of solutions were respectively taken from each of the samples, and added to acetonitrile (0.4 ml) cooled to −20° C. for precipitation of protein.

The test system of data set [4] is human prostate cancer PC-3. The settings on record: PC-3 xenograft, nude mice; 13 mg/kg, D0 IV, single dose; D20.
Excerpt: Test of the inhibitory activity of the water soluble cabazitaxel derivatives on subcutaneously xenografted tumor of human prostate cancer PC-3 in nude mice: evaluating and comparing the inhibitory activity of the water soluble cabazitaxel derivatives and cabazitaxel on subcutaneously xenografted tumor of human prostate cancer PC-3 in nude mice.
Human prostate cancer PC-3 cells were subcutaneously inoculated into nude mice. After the tumor volume reached 100-150 mm^3, the animals were randomly divided into several groups, and administered with the water soluble cabazitaxel derivatives of the present invention and cabazitaxel, respectively once on the same day (D0). The tumor volume was measured 2-3 times per week, the animals were weighed and the data were recorded until day 20 (D20) after grouping.
as §1, §2

These results are taken from patent US10239851B2 (priority 2014, dated 2019).

Like-named read-outs stand apart in the source and are kept apart here.
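For Tumor inhibitory percent (%) D20 in this document: human prostate cancer PC-3 cells implanted under the skin of nude mice to form the xenograft.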
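For Tumor volume (mm^3) (D0) in this document: human prostate cancer PC-3 cells implanted under the skin of nude mice to form the xenograft.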
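For Tumor volume (mm^3) (D20) in this document: human prostate cancer PC-3 cells implanted under the skin of nude mice to form the xenograft.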
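For Weight change (%) D6 in this document: human prostate cancer PC-3 cells implanted under the skin of nude mice to form the xenograft.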

As to `CCN(C)CCC(F)C(=O)OC(C(=O)OC1CC2(O)C(OC(=O)c3ccccc3)C3C4(OC(C)=O)COC4CC(O)C3(C)C(=O)C(O)C(=C1C)C2(C)C)C(NC(=O)OC(C)(C)C)c1ccccc1.CS(=O)(=O)O` [Compound 23, 2′-O-[4-(N-methyl-N-ethyl)amino-2(R)-fluorobutyryl]docetaxel methanesulfonate], the “T/C (%) D20” value in data set [1] was −62%.

For `CCN(CC)CCC(F)C(=O)OC(C(=O)OC1CC2(O)C(OC(=O)c3ccccc3)C3C4(OC(C)=O)COC4CC(O)C3(C)C(=O)C(O)C(=C1C)C2(C)C)C(NC(=O)OC(C)(C)C)c1ccccc1.O=C(O)C=CC(=O)O` [Compound 24, 2′-O-[4-(N,N-diethyl)amino-2(S)-fluorobutyryl]docetaxel maleate], in data set [1], the “T/C (%) D20” value is recorded as −52% and the “Tumor inhibitory percent (%) D20” value was found to be 120%.

With `CC(=O)O[C@@]12CO[C@@H]1C[C@H](O)[C@@]1(C)C(=O)[C@H](O)C3=C(C)[C@@H](OC(=O)[C@H](OC(=O)[C@H](F)CCN(C)C(C)C)[C@@H](NC(=O)OC(C)(C)C)c4ccccc4)C[C@@](O)([C@@H](OC(=O)c4ccccc4)[C@H]21)C3(C)C.Cl` [Compound 25, 2′-O-[4-(N-methyl-N-isopropyl)amino-2(R)-fluorobutyryl]docetaxel hydrochloride], the “T/C (%) D20” value in data set [1] is on record as −44%.

For the molecule `CC(=O)O[C@@]12CO[C@@H]1C[C@H](O)[C@@]1(C)C(=O)[C@H](O)C3=C(C)[C@@H](OC(=O)[C@H](OC(=O)[C@@H](CCN(C)C)C(F)(F)F)[C@@H](NC(=O)OC(C)(C)C)c4ccccc4)C[C@@](O)([C@@H](OC(=O)c4ccccc4)[C@H]21)C3(C)C.CS(=O)(=O)O` [Compound 26, 2′-O-[4-(N,N-dimethyl)amino-2(R)-2-trifluoromethylbutyryl] docetaxel methanesulfonate], the “T/C (%) D20” value in data set [1] is −46%.

In the case of `CC(=O)O[C@@]12CO[C@@H]1C[C@H](O)[C@@]1(C)C(=O)[C@H](O)C3=C(C)[C@@H](OC(=O)[C@H](OC(=O)C(CCN(C)C)C(F)F)[C@@H](NC(=O)OC(C)(C)C)c4ccccc4)C[C@@](O)([C@@H](OC(=O)c4ccccc4)[C@H]21)C3(C)C.Cl` (stereo partly drawn) [Compound 27, 2′-O-[4-(N,N-dimethyl)amino-2(R,S)-2-difluoromethylbutyryl]docetaxel hydrochloride], in data set [1], the “T/C (%) D20” value was −37% and the “Tumor inhibitory percent (%) D20” value is 85%.

As to `CC(=O)O[C@@]12CO[C@@H]1C[C@H](O)[C@@]1(C)C(=O)[C@H](O)C3=C(C)[C@@H](OC(=O)[C@H](OC(=O)C(F)CCCN(C)C)[C@@H](NC(=O)OC(C)(C)C)c4ccccc4)C[C@@](O)([C@@H](OC(=O)c4ccccc4)[C@H]21)C3(C)C.CS(=O)(=O)O` (stereo partly drawn) [Compound 28, 2′-O-[5-(N,N-dimethyl)amino-2(R,S)-fluorovaleryl]docetaxel methanesulfonate], in data set [1], the “Tumor volume (mm^3) (D0)” value amounted to 118.2 ± 4.8 mm^3, the “Weight change (%) D6” value is listed as −15.4%, the “T/C (%) D20” value was −28% and the “Tumor volume (mm^3) (D20)” value is listed as 41.5 ± 14.7 mm^3. Moreover, in data set [1], the “Tumor inhibitory percent (%) D20” value is listed as 64%.

As for `CC(=O)O[C@@]12CO[C@@H]1C[C@H](O)[C@@]1(C)C(=O)[C@H](O)C3=C(C)[C@@H](OC(=O)[C@H](OC(=O)[C@@H](F)CCCCN(C)C)[C@@H](NC(=O)OC(C)(C)C)c4ccccc4)C[C@@](O)([C@@H](OC(=O)c4ccccc4)[C@H]21)C3(C)C.O=S(=O)(O)O` [Compound 29, 2′-O-[6-(N,N-dimethyl)amino-2(S)-fluorohexanoyl]docetaxel sulfate], in data set [1], the “Tumor volume (mm^3) (D0)” value is 114.7 ± 3.5 mm^3, the “Weight change (%) D6” value is −15.8%, the “T/C (%) D20” value is on record as −20% and the “Tumor volume (mm^3) (D20)” value is recorded as 52.4 ± 12.5 mm^3. Further, the “Tumor inhibitory percent (%) D20” value in data set [1] was 45%.

In the case of `CC(=O)O[C@@]12CO[C@@H]1C[C@H](O)[C@@]1(C)C(=O)[C@H](O)C3=C(C)[C@@H](OC(=O)[C@H](OC(=O)[C@H](F)CCN(C)C)[C@@H](NC(=O)OC(C)(C)C)c4ccccc4)C[C@@](O)([C@@H](OC(=O)c4ccccc4)[C@H]21)C3(C)C.CS(=O)(=O)O` [Compound C4, 2′-O-[4-(N,N-dimethyl)amino-2(R)-fluorobutyryl]docetaxel methanesulfonate], the dissociation percent in data set [2] (2 min) was found to be 59.2%; in data set [2] (5 min), 93.4%; in data set [2] (10 min), 100%; in data set [3] (5 min), 81.6%; in data set [3] (20 min) it was 94.8%; in data set [3] (60 min), 100%. The “T/C (%) D20” value in data set [1] is −77%.

With `CC(=O)O[C@@]12CO[C@@H]1C[C@H](O)[C@@]1(C)C(=O)[C@H](O)C3=C(C)[C@@H](OC(=O)[C@H](OC(=O)[C@@H](F)CCN(C)C)[C@@H](NC(=O)OC(C)(C)C)c4ccccc4)C[C@@](O)([C@@H](OC(=O)c4ccccc4)[C@H]21)C3(C)C.CS(=O)(=O)O` [Compound C5, 2′-O-[4-(N,N-dimethyl)amino-2(S)-fluorobutyryl]docetaxel methanesulfonate], the dissociation percent in data set [2] (2 min) was 58.9%; in data set [2] (5 min), 93.3%; in data set [2] (10 min), 100%; in data set [3] (5 min), 81.2%; in data set [3] (20 min), 93.1%; in data set [3] (60 min), 100%. Also, the “T/C (%) D20” value in data set [1] is given as −76%.

Take `CC(=O)O[C@@]12CO[C@@H]1C[C@H](O)[C@@]1(C)C(=O)[C@H](O)C3=C(C)[C@@H](OC(=O)[C@H](OC(=O)C(F)CCN(C)C)[C@@H](NC(=O)OC(C)(C)C)c4ccccc4)C[C@@](O)([C@@H](OC(=O)c4ccccc4)[C@H]21)C3(C)C.CS(=O)(=O)O` (stereo partly drawn) [Compound C6, 2′-O-[4-(N,N-dimethyl)amino-2(R,S)-fluorobutyryl]docetaxel methanesulfonate]: the dissociation percent is given as 59.1% in data set [2] (2 min); 93.3% in data set [2] (5 min); 100% in data set [2] (10 min); 76.8% in data set [3] (5 min); 97.8% in data set [3] (20 min); 100% in data set [3] (60 min). The “T/C (%) D20” value in data set [1] is given as −76%.

For the molecule `CO[C@H]1C(=O)[C@]2(C)[C@@H](OC)C[C@H]3OC[C@@]3(OC(C)=O)[C@H]2[C@H](OC(=O)c2ccccc2)[C@]2(O)C[C@H](OC(=O)[C@H](OC(=O)C(F)CCN(C)C)[C@@H](NC(=O)OC(C)(C)C)c3ccccc3)C(C)=C1C2(C)C.CS(=O)(=O)O` (stereo partly drawn) [Compound C9, 2′-O-[4-(N,N-dimethyl)amino-2(R,S)-fluorobutyryl] cabazitaxel methanesulfonate], the dissociation percent in data set [2] (2 min) was 49.3%; in data set [2] (5 min) it was 88.6%; in data set [2] (10 min), 100%; in data set [3] (5 min) it was 81.2%; in data set [3] (20 min), 96.7%; in data set [3] (60 min) it was 100%. Further, the “T/C (%) D20” value in data set [4] is given as −66%.
